Results from the NIST ThermoML archive (doi:10.1007/s10765-010-0766-0).
Several values for one entry are separate records, joined by “and”; a condition that tells them apart may be missing. Equal values may be shown once. ± gives the expanded uncertainty stated by the source.

Experiment: molar heat capacity at constant volume
Settings: Liquid, Vacuum adiabatic calorimetry

FC(F)C(F)(F)OCC(F)(F)F [2,2,2-trifluoroethyl 1,1,2,2-tetrafluoroethyl ether]
Settings | molar heat capacity at constant volume
342.15 K, 16809 kPa | 207.06 ± 9.4 J/K/mol
342.15 K, 16812 kPa | 204.66 ± 9.2 J/K/mol
343.15 K, 17505 kPa | 207.06 ± 9.4 J/K/mol
343.15 K, 17508 kPa | 209.46 ± 9.4 J/K/mol
344.15 K, 18201 kPa | 208.46 ± 9.4 J/K/mol
344.15 K, 18203 kPa | 206.86 ± 9.4 J/K/mol
345.15 K, 18896 kPa | 207.66 ± 9.4 J/K/mol
345.15 K, 18898 kPa | 208.46 ± 9.4 J/K/mol
346.15 K, 19590 kPa | 208.86 ± 9.4 J/K/mol
346.15 K, 19592 kPa | 209.46 ± 9.4 J/K/mol
347.15 K, 20282 kPa | 208.46 ± 9.4 J/K/mol
347.15 K, 20287 kPa | 209.26 ± 9.4 J/K/mol
348.15 K, 20974 kPa | 209.86 ± 9.4 J/K/mol
348.15 K, 20978 kPa | 208.06 ± 9.4 J/K/mol
349.15 K, 21666 kPa | 210.06 ± 9.4 J/K/mol
349.15 K, 21671 kPa | 208.66 ± 9.4 J/K/mol
350.15 K, 22357 kPa | 208.66 ± 9.4 J/K/mol
350.15 K, 22360 kPa | 209.86 ± 9.4 J/K/mol
351.15 K, 23047 kPa | 209.86 ± 9.4 J/K/mol
351.15 K, 23050 kPa | 209.26 ± 9.4 J/K/mol
352.15 K, 23735 kPa | 210.86 ± 9.4 J/K/mol
352.15 K, 23739 kPa | 210.46 ± 9.4 J/K/mol
353.15 K, 24423 kPa | 210.26 ± 9.4 J/K/mol
353.15 K, 24426 kPa | 208.06 ± 9.4 J/K/mol
354.15 K, 25110 kPa | 210.86 ± 9.4 J/K/mol
354.15 K, 25114 kPa | 212.46 ± 9.6 J/K/mol
355.15 K, 25797 kPa | 211.06 ± 9.6 J/K/mol
355.15 K, 25801 kPa | 209.46 ± 9.4 J/K/mol
356.15 K, 26482 kPa | 211.86 ± 9.6 J/K/mol
356.15 K, 26486 kPa | 212.66 ± 9.6 J/K/mol
357.15 K, 27166 kPa | 211.26 ± 9.6 J/K/mol
357.15 K, 27171 kPa | 210.26 ± 9.4 J/K/mol
358.15 K, 27851 kPa | 212.26 ± 9.6 J/K/mol
358.15 K, 27855 kPa | 211.46 ± 9.6 J/K/mol
359.15 K, 5632 kPa | 208.86 ± 9.4 J/K/mol
359.15 K, 5637 kPa | 212.66 ± 9.6 J/K/mol
359.15 K, 28535 kPa | 212.86 ± 9.6 J/K/mol
359.15 K, 28538 kPa | 210.46 ± 9.4 J/K/mol
360.15 K, 6174 kPa | 219.66 ± 9.8 J/K/mol
360.15 K, 6180 kPa | 217.06 ± 9.8 J/K/mol
360.15 K, 29217 kPa | 214.06 ± 9.6 J/K/mol
360.15 K, 29220 kPa | 212.66 ± 9.6 J/K/mol
361.15 K, 6718 kPa | 218.26 ± 9.8 J/K/mol
361.15 K, 6724 kPa | 216.66 ± 9.8 J/K/mol
361.15 K, 29899 kPa | 213.46 ± 9.6 J/K/mol
361.15 K, 29902 kPa | 211.26 ± 9.6 J/K/mol
362.15 K, 7261 kPa | 215.86 ± 9.8 J/K/mol
362.15 K, 7266 kPa | 216.46 ± 9.8 J/K/mol
363.15 K, 7803 kPa | 218.26 ± 9.8 J/K/mol
363.15 K, 7809 kPa | 215.46 ± 9.6 J/K/mol
364.15 K, 8346 kPa | 219.06 ± 9.8 J/K/mol
364.15 K, 8350 kPa | 216.06 ± 9.8 J/K/mol
365.15 K, 8888 kPa | 216.66 ± 9.8 J/K/mol
365.15 K, 8892 kPa | 215.86 ± 9.8 J/K/mol
366.15 K, 9430 kPa | 217.86 ± 9.8 J/K/mol
366.15 K, 9434 kPa | 216.86 ± 9.8 J/K/mol
367.15 K, 9971 kPa | 217.46 ± 9.8 J/K/mol
367.15 K, 9976 kPa | 214.46 ± 9.6 J/K/mol
368.15 K, 10512 kPa | 219.06 ± 9.8 J/K/mol
368.15 K, 10516 kPa | 216.46 ± 9.8 J/K/mol
369.15 K, 11053 kPa | 221.26 ± 10 J/K/mol
369.15 K, 11057 kPa | 217.06 ± 9.8 J/K/mol
370.15 K, 11593 kPa | 218.86 ± 9.8 J/K/mol
370.15 K, 11598 kPa | 217.46 ± 9.8 J/K/mol
371.15 K, 12133 kPa | 218.66 ± 9.8 J/K/mol
371.15 K, 12137 kPa | 218.86 ± 9.8 J/K/mol
372.15 K, 12673 kPa | 218.86 ± 9.8 J/K/mol
372.15 K, 12677 kPa | 215.86 ± 9.8 J/K/mol
373.15 K, 13212 kPa | 219.66 ± 9.8 J/K/mol
373.15 K, 13216 kPa | 217.86 ± 9.8 J/K/mol
374.15 K, 13752 kPa | 219.46 ± 9.8 J/K/mol
374.15 K, 13756 kPa | 217.66 ± 9.8 J/K/mol
375.15 K, 14290 kPa | 217.86 ± 9.8 J/K/mol
375.15 K, 14294 kPa | 219.06 ± 9.8 J/K/mol
376.15 K, 14828 kPa | 220.86 ± 10 J/K/mol
376.15 K, 14831 kPa | 218.86 ± 9.8 J/K/mol
377.15 K, 15366 kPa | 220.06 ± 10 J/K/mol
377.15 K, 15369 kPa | 218.46 ± 9.8 J/K/mol
378.15 K, 15904 kPa | 218.46 ± 9.8 J/K/mol
378.15 K, 15906 kPa | 219.66 ± 9.8 J/K/mol
379.15 K, 16441 kPa | 218.86 ± 9.8 J/K/mol
379.15 K, 16443 kPa | 219.86 ± 9.8 J/K/mol
380.15 K, 16977 kPa | 219.26 ± 9.8 J/K/mol
380.15 K, 16980 kPa | 219.46 ± 9.8 J/K/mol
381.15 K, 17514 kPa | 219.26 ± 9.8 J/K/mol
381.15 K, 17515 kPa | 217.26 ± 9.8 J/K/mol
382.15 K, 18050 kPa | 219.86 ± 9.8 J/K/mol
382.15 K, 18051 kPa | 219.66 ± 9.8 J/K/mol
383.15 K, 18585 kPa | 221.26 ± 10 J/K/mol
383.15 K, 18586 kPa | 221.46 ± 10 J/K/mol
384.15 K, 19120 kPa | 220.66 ± 10 J/K/mol
384.15 K, 19121 kPa | 222.06 ± 10 J/K/mol
385.15 K, 19655 kPa | 218.86 ± 9.8 J/K/mol
385.15 K, 19656 kPa | 220.66 ± 10 J/K/mol
386.15 K, 20189 kPa | 221.06 ± 10 J/K/mol
387.15 K, 20723 kPa | 223.66 ± 10 J/K/mol and 224.66 ± 10 J/K/mol
388.15 K, 21256 kPa | 224.66 ± 10 J/K/mol and 224.06 ± 10 J/K/mol
389.15 K, 21789 kPa | 225.66 ± 10 J/K/mol and 224.86 ± 10 J/K/mol
390.15 K, 22322 kPa | 226.86 ± 10 J/K/mol and 224.86 ± 10 J/K/mol
391.15 K, 22854 kPa | 224.66 ± 10 J/K/mol
391.15 K, 22855 kPa | 228.46 ± 10 J/K/mol
392.15 K, 23385 kPa | 225.06 ± 10 J/K/mol
392.15 K, 23386 kPa | 227.06 ± 10 J/K/mol
393.15 K, 23917 kPa | 228.26 ± 10 J/K/mol and 226.46 ± 10 J/K/mol
394.15 K, 24448 kPa | 226.26 ± 10 J/K/mol and 223.66 ± 10 J/K/mol
395.15 K, 24978 kPa | 226.66 ± 10 J/K/mol and 225.06 ± 10 J/K/mol
396.15 K, 25507 kPa | 229.06 ± 10 J/K/mol
396.15 K, 25508 kPa | 226.86 ± 10 J/K/mol
397.15 K, 26037 kPa | 228.06 ± 10 J/K/mol
397.15 K, 26038 kPa | 226.06 ± 10 J/K/mol
398.15 K, 26566 kPa | 229.06 ± 10 J/K/mol
398.15 K, 26567 kPa | 227.06 ± 10 J/K/mol
399.15 K, 27094 kPa | 227.06 ± 10 J/K/mol
399.15 K, 27096 kPa | 227.86 ± 10 J/K/mol
400.15 K, 27622 kPa | 228.66 ± 10 J/K/mol
400.15 K, 27623 kPa | 228.46 ± 10 J/K/mol
401.15 K, 28150 kPa | 229.66 ± 10 J/K/mol
401.15 K, 28151 kPa | 227.66 ± 10 J/K/mol
402.15 K, 28677 kPa | 226.66 ± 10 J/K/mol
402.15 K, 28678 kPa | 227.26 ± 10 J/K/mol
403.15 K, 29204 kPa | 229.26 ± 10 J/K/mol
403.15 K, 29205 kPa | 227.86 ± 10 J/K/mol
404.15 K, 29730 kPa | 227.86 ± 10 J/K/mol
404.15 K, 29732 kPa | 229.86 ± 10 J/K/mol
